Measurements reported in ChEMBL document CHEMBL1177693, “Antimalarials from nature” (Bioorg Med Chem, 2009).
In brackets after ≈: the same amount, converted by molar mass.

Tested on: Plasmodium falciparum
Experiment: Antimalarial activity against Plasmodium falciparum
Format: functional, organism-based
Settings: Plasmodium falciparum

**Q.** For COc1cc2c(=O)c3c(O)c(C/C=C(\C)CCC=C(C)C)c(O)cc3oc2cc1O [COWAXANTHONE], which IC50 is on record?
**A.** 1.5 µg/mL (≈ 3.65 µM)

**Q.** How did the IC50 turn out when C=C(C)C(=O)O[C@@H]1C[C@@]2(C)OC(=CC2=O)/C(CO)=C\[C@H]2OC(=O)C(=C)[C@@H]21 was run?
**A.** 1.2 µg/mL (≈ 3.33 µM)

**Q.** For CC1=CC(=O)C[C@@H]2[C@@](C)(CC[C@H](C)CC(=O)O)[C@H](C)C(=O)C[C@@]12C, which IC50 is on record?
**A.** 4.3 µg/mL (≈ 12.9 µM)

Tested on: Plasmodium falciparum
Experiment: Antimalarial activity against Plasmodium falciparum T9-96
Format: functional, organism-based
Settings: not given

**Q.** For CO[C@@H]1C=C[C@]23c4cc5c(cc4[C@@H](O)N(C[C@@H]2O)[C@H]3C1)OCO5, which IC50 is on record?
**A.** 0.34 µg/mL (≈ 1.07 µM)

**Q.** With CO[C@@H]1C=C[C@@]23c4cc5c(cc4CN(C[C@@H]2O)[C@H]3C1)OCO5 [(+)-HAEMANTHAMINE] as the compound, how does the IC50 read?
**A.** 0.7 µg/mL (≈ 2.32 µM)

Tested on: Plasmodium falciparum
Experiment: Antimalarial activity against Plasmodium falciparum K1
Format: functional, organism-based
Settings: not given

**Q.** CO[C@@H]1C=C[C@@]23c4cc5c(cc4CO[C@]2(O)CN(C)[C@H]3C1)OCO5 [TAZETTINE] was tested. Which IC50 did it give?
**A.** 5.42 µg/mL

**Q.** How did the EC50 turn out when CC[C@H](C)[C@H]1OC(=O)[C@H](Cc2ccccc2)N(C)C(=O)[C@@H](C(C)C)OC(=O)[C@H](Cc2ccccc2)N(C)C(=O)[C@@H](C(C)C)OC(=O)[C@H](Cc2ccccc2)N(C)C1=O [BEAUVERICIN A] was run?
**A.** 12 µg/mL (≈ 15 µM)

**Q.** Which EC50 does the source give for CC(C)[C@@H]1OC(=O)[C@@H](Cc2ccccc2)N(C)C(=O)[C@H](C(C)C)OC(=O)[C@@H](Cc2ccccc2)N(C)C(=O)[C@H](C(C)C)OC(=O)[C@@H](Cc2ccccc2)N(C)C1=O [BEAUVERICIN] here?
**A.** 1.6 µg/mL (≈ 2.04 µM)

**Q.** C[C@H]1C/C=C/[C@@H](O)[C@@H](O)CC/C=C/c2cc(O)cc(O)c2C(=O)O1 [AIGIALOMYCIN D] was tested. Which IC50 did it give?
**A.** 6.6 µg/mL

**Q.** COC(=O)C[C@H]1[C@]2(C)C3=C(C)[C@H](c4ccoc4)C[C@H]3O[C@@H]2[C@@H]2OC(=O)[C@]3(C)C=CC(=O)[C@@]1(C)[C@@H]23 [NIMBOLIDE] was tested. Which EC50 did it give?
**A.** 0.00095 µg/mL (≈ 0.00204 µM)

**Q.** CCN(CC)CCOc1cc2oc3cc(O)c(CC=C(C)C)c(O)c3c(=O)c2c(CC=C(C)C)c1OC was tested. Which IC50 did it give?
**A.** < 1000 nM

**Q.** How did the IC50 turn out when CCN(CC)CC(O)COc1cc2oc3cc(O)c(CC=C(C)C)c(O)c3c(=O)c2c(CC=C(C)C)c1OC (stereo not drawn) was run?
**A.** < 1000 nM

**Q.** Which IC50 does the source give for COc1ccc2c3c1O[C@H]1C[C@@H](O)C=C[C@@]31CCN(C)C2 [GALANTAMINE] here?
**A.** 4.38 µg/mL

**Q.** How did the IC50 turn out when COc1c(OCCCN(C)C)cc2oc3cc(O)c(CC=C(C)C)c(O)c3c(=O)c2c1CC=C(C)C was run?
**A.** < 1000 nM

Tested on: Plasmodium falciparum
Experiment: Antimalarial activity against multidrug-resistant Plasmodium falciparum K1
Format: functional, organism-based
Settings: not given

**Q.** For CC[C@@]12CCCN3CC[C@]4(c5ccc(OC)c(O)c5N(C(C)=O)[C@@H]4CC1)[C@H]32 [ASPIDOCARPINE], which IC50 is on record?
**A.** 19 nM

**Q.** Which IC50 does the source give for COC(=O)[C@]12OC[C@]34[C@H]([C@@H](O)[C@@H]1O)[C@@]1(C)C5=CC(=O)OC5=C[C@@H](C)[C@@H]1C[C@H]3OC(=O)[C@H](OC(C)=O)[C@@H]24 [NEOSERGEOLIDE] here?
**A.** 2 nM

**Q.** Which IC50 does the source give for CN1C2=CC(O)=c3ccccc3=NC2c2ccccc21 (stereo not drawn) [CRYPTOHEPTINE] here?
**A.** 800 nM

**Q.** For Cc1c2ccncc2c(C)c2c1[nH]c1ccccc12 [ELLIPTECINE], which IC50 is on record?
**A.** 73 nM

Tested on: Plasmodium falciparum
Experiment: Antimalarial activity against Plasmodium falciparum W2
Format: functional, organism-based
Settings: not given

**Q.** How did the IC50 turn out when COc1cc2c(cc1OC)[C@@H]1Cc3ccc(OC)c(OC)c3CN1CC2 [TETRAHYDROPALMATINE] was run?
**A.** 32600 nM

**Q.** With COc1ccc2cc1Oc1ccc(cc1)C[C@H]1c3c(cc4c(c3Oc3cc5c(cc3OC)CCN(C)[C@@H]5C2)OCO4)CCN1C [CEPHARANTHINE] as the compound, how does the IC50 read?
**A.** 610 nM

**Q.** CN1CCc2cc3c(c4c2c1cc1ccccc14)OCO3 [DEHYDROROEMERINE] was tested. Which IC50 did it give?
**A.** 360 nM

**Q.** COc1cc2c(cc1OC)CN1CCc3cc(OC)c(OC)cc3[C@@H]1C2 [XYLOPININE] was tested. Which IC50 did it give?
**A.** 52300 nM

Tested on: Plasmodium falciparum
Experiment: Antimalarial activity against chloroquine-resistant Plasmodium falciparum
Format: functional, organism-based
Settings: not given

**Q.** How did the IC50 turn out when COc1ccc([C@H]2Oc3cc(O)cc(O)c3C(=O)[C@@H]2[C@H]2C(=O)c3c(O)cc(O)cc3O[C@@H]2c2ccc(O)cc2)cc1 [SIKOKIANIN C] was run?
**A.** 0.56 µg/mL (≈ 1.01 µM)

**Q.** COc1ccc([C@@H]2Oc3cc(O)cc(O)c3C(=O)[C@H]2[C@H]2C(=O)c3c(O)cc(O)cc3O[C@H]2c2ccc(O)cc2)cc1 [SIKOKIANIN B] was tested. Which IC50 did it give?
**A.** 0.54 µg/mL (≈ 0.97 µM)

Tested on: Plasmodium berghei
Experiment: Antimalarial activity against Plasmodium berghei infected in mice (Mus musculus) assessed as increase in survival of mice (Mus musculus) at 100 uM/kg
Format: functional
Settings: not given

**Q.** With C[C@@H]1CC[C@H]2[C@@H](C)C(=O)O[C@@H]3O[C@@]4(C)CC[C@@H]1[C@]32OO4 [ARTEMISININ] as the compound, how does the Survival read?
**A.** 2 days

**Q.** CCN(CC)CCCC(C)Nc1ccnc2cc(Cl)ccc12 (stereo not drawn) [CHLOROQUINE] was tested. Which Survival did it give?
**A.** 6 days

**Q.** With Oc1cccc2c1[nH]c1c(C3=C[C@]4(O)CC/C=C\CCCCN5CC[C@H]3[C@@]3(C[C@H]6/C=C\CCCCN6[C@@H]34)C5)nccc12 [ENT-8-HYDROXYMENZAMINE A] as the compound, how does the Survival read?
**A.** 9 days

**Q.** For O[C@@H]1CCCN2CC[C@@H]1O[C@@]13CC[C@@H](OC[C@]45CN6CCCC/C=C\CC[C@](O)(C=C(c7nccc8c7[nH]c7ccccc78)[C@@H]4CC6)[C@H]25)[C@@H](O)CCN1[C@@H]1[C@]2(CN4CCCC/C=C\CC[C@]1(O)C=C(c1nccc5c1[nH]c1ccccc15)[C@@H]2CC4)C3 [NEO-KAULUAMINE], which Survival is on record?
**A.** 9 days
